Test [1] has as its system liver injury induced by carbon tetrachloride. Particulars: serum day 61, n=6. The procedure:
Experiment 3 Protection of 5-Methyltetrahydrofolate Calcium on Liver Injury Induced by Carbon Tetrachloride
30 SPF-grade SD rats were chosen in half female and half male and randomly divided into vehicle control group (vegetable oil), model control group (1.5 ml·kg−1, 20% carbon tetrachloride vegetable oil solvent, intraperitoneal injection every 3 days), 5-methyltetrahydrofolate calcium low-dose group (1mg·Kg−1), 5-methyltetrahydrofolate calcium medium-dose group (2 mg·Kg−1), and 5-methyltetrahydrofolate calcium high-dose group (4 mg·Kg−1) according to their body weight. 20% carbon tetrachloride vegetable oil solvent was used as the inducer, and intraperitoneal injection was performed every 3 days for a total of 60 days. After successful modeling, the administration groups were given a dosage of 5-methyltetrahydrofolate calcium as prescribed above for gavage once a day, and the model group and the normal control group were gavaged once daily with purified water for 60 consecutive days. Blood was taken on the 61st day, and the levels of ALT and AST in serum were detected.

For the next test, the system named is IL-1β. The experiment in a line: Alcoholic fatty liver model, IL-1β in hippocampus tissue (ELISA). It is filed as in vivo, SD rats. Particulars: liquor model, n=16. How it is done:
According to their weight, they were randomly divided into vehicle control group (purified water, ig), model control group (liquor, 10 ml·Kg−1), positive control group (bicyclol, 50 mg·Kg−1, ig), folic acid calcium salt high-dose group (4 mg·Kg−1), folic acid calcium salt medium-dose group (2 mg·Kg−1), folic acid calcium salt low-dose group (1 mg·Kg−1), in half female and half male, and 16 rats in each group. Purified water was used as a negative control, and bicyclol (place of origin: Beijing Xiehe Pharmaceutical Factory, specification: 25 mg/tablet, batch number: H20040467) was used as a positive control drug. Route of administration: all were administered by oral gavage. Dosage of administration: 1 mg·Kg−1, 2 mg·Kg−1, and 4 mg·Kg−1. Frequency of administration: once a day for 60 consecutive days.
Method of administration: administration started at prescribed doses on the day of modeling for 60 consecutive days and ended at the 60th day. At the same time, rats in each group were weighed every other week during administration period to monitor their body weight changes. On the 61st day, rats were dissected and serum was collected for determination of triglyceride (TG), total cholesterol (TC), malondialdehyde (MDA), superoxide dismutase (SOD) and liver histopathologic examination. The brain tissue of rats was taken out, and hippocampus tissue was separated on ice plate, prepared to homogenate with a mass fraction of 10% with purified water, then the homogenate was centrifuged to obtain supernatant. ELISA was used to detect the levels of inflammatory factors TNF-α and IL-1β in hippocampus tissue with continuous spectrum scanning microplate reader.

Another test concerns mice after drinking. Particulars: n=10. The procedure:
Experiment 8 Tail Suspension Test and Swimming Test in Mice after Drinking
Clean-grade male Kunming mice, weighing 18-22 g, were chosen. The test was carried out at 23° C. with a humidity of 50%. The mice ate and drank freely, adapting to the environment for 5 days before the test. Then they were divided into 5 groups: model group, normal group, high-dose 5-MTHF-Ca group, medium-dose 5-MTHF-Ca group and low-dose 5-MTHF-Ca group (16 mg·Kg−1, 8mg·Kg−1, 4mg·Kg−1),
10 mice in each group. The model group was given (by gavage) Erguotou (batch number: 201603092, specification: 2L, place of origin: Beijing Shunxin Agriculture Co., Ltd.) at 18 ml·Kg−1, and calcium folate (Lianyungang Jinkang Hexin Pharmaceutical Co., Ltd.). The high-dose, medium-dose and low-dose groups were also given the solution containing Erguotou and calcium folate. The mice were tested after 24 h. The tail suspension test is carried out by fixing the tail of a mouse so that it is suspended head down in a state of desperately struggling to escape but unable to escape. After a period of time, record the immobility time of the mouse in a desperate state in this environment to observe the therapeutic effect after administration. The head of the mouse suspended upside down was 10 cm from the bottom of the box, and two mice were suspended at a time, which were separated by a partition to avoid collision. The mice were suspended for 10 min, and the accumulated immobility time of the suspended mice was counted within the latter 5 min.

The subject of a further test is alcohol drinking rats. In words: Disappearance and recovery of righting reflex of alcohol drinking rats. It is filed as in vivo, SD rats. Particulars: 30 min before Erguotou 9 ml·Kg−1, n=6. The procedure: Experiment 1 Effect of 5-methyltetrahydrofolate on disappearance and recovery of righting reflex of alcohol drinking rats.
30 SPF-grade SD rats were chosen in half male and half female, and divided into 5 groups with 6 rats in each group, including normal group, model group, positive drug group (Weihe Liver Protectant), 5-methyltetrahydrofolate administration group (4 mg·Kg−1 medium dose group, 8 mg·Kg−1 high dose group, respectively). After fasting for 12 h, the administration group was given Weihe Liver Protectant at 50 mg·kg−1, 5-methyltetrahydrofolate (Jinkang Hexin product) at 4 mg·Kg−1, 5-methyltetrahydrofolate (Jinkang Hexin product) at 8 mg·Kg−1, respectively. […] The intoxication in rats depends on righting reflex disappearing, that is, cover the head of the rat with gauze, and gently place the rat back down in the animal cage. […] The disappearance time and recovery time of the righting reflex in rats after drinking were recorded.

Setting [2] is: 1 mg·kg−1·d−1 gavage 60 d after CCl4 modeling.
Setting [3] is: 2 mg·kg−1·d−1 gavage 60 d after CCl4 modeling.
Setting [4] is: 4 mg·kg−1·d−1 gavage 60 d after CCl4 modeling.

Where two headings read alike, the source gives them in different places.

For the molecule 5-methyltetrahydrofolate calcium, the figures for the ALT in test [1] (setting [2]), in test [1] (setting [3]) and in test [1] (setting [4]) were 54.64 ± 20.52 IU/L, 50.54 ± 20.12 IU/L and 40.84 ± 16.31 IU/L, respectively. In addition, the AST in test [1] (setting [2]) was determined as 185.73 ± 63.46 IU/L; in test [1] (setting [3]) it was 156.97 ± 50.35 IU/L; in test [1] (setting [4]), 125.87 ± 43.84 IU/L. In addition, the figures for the “IL-1β in hippocampus tissue” value in the test with IL-1β (1 mg·kg−1·d−1 ig 60 d), in the test on IL-1β (2 mg·kg−1·d−1 ig 60 d) and in the test with IL-1β (4 mg·kg−1·d−1 ig 60 d) were 63.05 ± 5.31 μg · g^−1 prot, 63.24 ± 13.44 μg · g^−1 prot and 55.21 ± 3.59 μg · g^−1 prot, respectively. For the same molecule, the Suspension immobility time turned out to be 63.53 ± 2.98 S with mice after drinking (high dose 16 mg·Kg−1 with Erguotou 18 ml·Kg−1, tested after 24 h); 72.42 ± 4.52 S in the test on mice after drinking (low dose 4 mg·Kg−1 with Erguotou 18 ml·Kg−1, tested after 24 h); 68.32 ± 3.46 S in the test on mice after drinking (medium dose 8 mg·Kg−1 with Erguotou 18 ml·Kg−1, tested after 24 h).
For `CN1c2c([nH]c(N)nc2=O)NCC1CNc1ccc(C(=O)N[C@@H](CCC(=O)O)C(=O)O)cc1` (stereo partly drawn) [5-methyltetrahydrofolate, N-[4-[[(2-amino-1,4,5,6,7,8-hexahydro-4-oxo-5-methyl-(6S), -(6R), and (6R,S)-pteridyl)methyl)amino)toluoyl-glutamic acid], in the test on alcohol drinking rats (4 mg·Kg−1 (medium)), the “Disappearance time (righting reflex)” value worked out at 30.1 ± 14.4 min and the “Recovery time (righting reflex)” value came to 78.5 ± 14.5 min. In the test on alcohol drinking rats (8 mg·Kg−1 (high)), the “Disappearance time (righting reflex)” value is reported as 42.3 ± 15.6 min and the “Recovery time (righting reflex)” value was determined as 64.1 ± 14.5 min.

The record behind these values is US20220280507A1, “USES OF 5-METHYLTETRAHYDROFOLATE AND ITS COMPOSITION” (Lianyungang Jinkang Hexin Pharmaceutical Co., Ltd., priority 2019, published 2022).
